Test results published in US20060241108A1, “Substituted phenoxazines and acridones as inhibitors of AKT” (St. Jude Children's Research Hospital, priority 2005, published 2006).

Columns and labels:
Rh18 cells [1] = test: Determination of apoptosis (Annexin V-FITC/propidium iodide flow cytometry), Rh18 cells; conditions: Rh18, 7.5 μM, four days, n = 3
Method: Determination of apoptosis. An ApoAlert™ Annexin V-FITC Apoptosis kit (available from Clontech, Palo Alto, Calif.) can be used to evaluate the extent of apoptosis within cell populations. Cells (Rh1: 350,000 per 75-cm^2 flask; Rh18: 800,000 per 75-cm^2 flask; or Rh30: 500,000 per 75-cm^2 flask) are preferably grown overnight in complete medium. On day 1, cells are treated with DMSO (0.1%; vehicle control) or with a test compound (e.g., a phenoxazine or acridone compound). After 4 days, the cells are trypsinized, washed with PBS, and resuspended in 200 μl of binding buffer. Cells are then incubated with 10 μl of annexin V-FITC (final concentration, 1 μg/ml) and 500 ng of propidium iodide in a final volume of 410 μl. Cells are preferably incubated at room temperature in the dark for ten minutes before flow cytometric analysis with an FACSCalibur™ Flow Cytometry System (Becton Dickinson, San Jose, Calif.).
For instance, Rh1, Rh18 and/or Rh30 cells can be grown in complete medium with 0.1% DMSO (as a negative control) or with one or more test compounds, e.g., any of the phenoxazine compounds listed in Table I, above, including but not limited to the compounds 10B, 11B, 13B, 14B or 15B. […] Cells are then harvested, and the extent of apoptosis evaluated, e.g., by an ApoAlert™ (Clontech, Palo Alto, Calif.) flow cytometric assay.

AKT1ΔPH = target: T1, AKT1ΔPH (Homo sapiens, UniProt P31749); test: In vitro kinase assay with recombinant AKT lacking the pleckstrin homology domain; assay type: biochemical; conditions: AKTΔPH versus full-length AKT
T1 construct: purchased Upstate Biotechnology
T1 sequence (P31749 118-480 limits assumed, stated change not applied): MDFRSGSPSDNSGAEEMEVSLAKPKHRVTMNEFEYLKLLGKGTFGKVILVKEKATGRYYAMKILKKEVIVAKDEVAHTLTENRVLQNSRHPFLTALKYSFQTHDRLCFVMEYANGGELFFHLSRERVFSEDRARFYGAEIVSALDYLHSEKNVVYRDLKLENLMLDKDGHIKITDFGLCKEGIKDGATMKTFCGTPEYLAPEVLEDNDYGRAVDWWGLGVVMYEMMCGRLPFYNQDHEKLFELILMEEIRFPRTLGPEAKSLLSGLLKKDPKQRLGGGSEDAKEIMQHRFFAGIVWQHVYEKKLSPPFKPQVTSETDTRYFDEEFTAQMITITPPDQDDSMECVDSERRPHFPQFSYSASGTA
Method: In vitro inhibition of recombinant AKT. In vitro kinase assays can be performed using an active, recombinant, full length AKT1/PKBα protein (available from Upstate Biotechnology, Lake Placid, N.Y.) or with an active, recombinant AKT1/PKBα protein, referred to herein as AKT1ΔPH, that lacks the pleckstrin homology domain (also available from Upstate Biotechnology). 10 ng of the recombinant enzyme in 25 μl 1× kinase buffer (25 mM Tris, pH 7.5; 5 mM β-glycerol phosphate; 2 mM dithiothreitol; 0.1 mM Na3VO4; and 10 mM MgCl2) is mixed with 2.5 μl of DMSO and a test compound (5 μM). Samples are incubated on ice for 1 hour, at which time 1 μg of GSK-3 fusion protein (Cell Signaling Technology, Beverly, Mass., catalog #9278) is added followed by ATP (200 μM) to each reaction mixture. After incubating the suspensions at 30° C. for 30 minutes, the reaction can be terminated by the addition of 3×SDS sample buffer (187.5 mM Tris-HCl, pH 6.8; 6% SDS; 30% glycerol; 150 mM dithiothreitol; and 0.03% bromophenol blue). The samples are then boiled for five minutes. The proteins can be separated on a 12% SDS polyacrylamide gel, and subsequently transferred to a nitrocellulose membrane. The membranes are preferably incubated with rabbit polyclonal anti-phospho-GSK-3α/β (Ser21/9) antibody (available from Cell Signaling Technology, Beverly, Mass., catalog # 9331). […]

Rh18 cells [2] = test: Cell growth inhibition, Rh18 cells; assay type: cell-based, human; conditions: complete medium, six days, nuclei counted
Method: Cell lines and growth conditions. The human cell lines Rh1, Rh18, and Rh30 (ATCC Deposit # CRL 2061) have been described, e.g., by Hazelton et al. Cancer Res 1987;47:4501-4507 and Hosoi et al. Cancer Res. 1999;59:886-894. Rh1, Rh18 and Rh30 cells can each be grown in antibiotic free RPMI-1640 medium (available from BioWhittaker, Walkersville, Md.), supplemented with 10% fetal bovine serum (available from HyClone Laboratories, Logan, Utah) and 2 mM L-glutamine (available from BioWhittaker, Walkersville, Md.) at 37° C. in an atmosphere of 5% CO2. For serum free experiments, cells can be cultured in modified N2E (MN2E) medium (DMEM/F-12, 1:1 mixture) (Sigma, St. Louis, Mo.) supplemented with 1 μg/ml human holo transferrin, 30 nM sodium selenite, 20 nM progesterone, 100 μM putrescine, 30 nM vitamin E phosphate, and 50 μM ethanolamine. […]
Cell growth inhibition. […] Growth can be assessed after lysing cells, and counting nuclei. […]
The effect(s) of compounds, including phenoxazine compounds such as those listed in Table I, above, on cell growth can be evaluated in cell-based assays such as the exemplary assays described here. Rh1, Rh18 and/or Rh30 cells grown in complete medium can be exposed to graded concentrations of test compound (e.g., from 0.1 to 25 μM) for six days, at which time the cells can be lysed and their growth assessed by counting nuclei. […]

| Molecule | Percentage of cells ± SD, Apoptotic (Rh18 cells [1]) [%] | ability to inhibit AKT kinase activity after deletion of the PH domain (AKT1ΔPH) | IC50 (Rh18 cells [2]) [µM] | Percentage of cells ± SD, Viable (Rh18 cells [1]) [%] |
| --- | --- | --- | --- | --- |
| 10-[4′-[(β-hydroxyethyl)piperazino]butyl]-2-chlorophenoxazine [Compound 15B] | 32.70 ± 8.99 | unaffected by deletion of the PH domain | 5 |  |
| CCN(CC)CCCCN1c2ccccc2Oc2ccc(Cl)cc21 [Compound 10B, 10-[4′-(N-diethylamino)butyl]-2-chlorophenoxazine] | 34.33 ± 6.13 | unaffected by deletion of the PH domain | 5 | 65.00 ± 2.94 |
